According to US5932577A, “Substituted oxobutyric acids as matrix metalloprotease inhibitors” (Bayer Corporation, priority 1997, dated 1999):

How the values were obtained:
[1] = biological target: T1, Human Recombinant Gelatinase A (MMP-2) (Homo sapiens, UniProt P08253); assay: P218 quenched fluorescence assay (Microfluorometric Profiling Assay), MMP-2; assay type: biochemical; conditions: for IC50: 6 μM P218, pH 6.5, 25 min at 37° C., read-out: MMP-2 Fluorogenic IC50; for inhibition at 5 µM: read-out: MMP-2 Fluorogenic, I = % inhibition
T1 sequence (P08253 110-660): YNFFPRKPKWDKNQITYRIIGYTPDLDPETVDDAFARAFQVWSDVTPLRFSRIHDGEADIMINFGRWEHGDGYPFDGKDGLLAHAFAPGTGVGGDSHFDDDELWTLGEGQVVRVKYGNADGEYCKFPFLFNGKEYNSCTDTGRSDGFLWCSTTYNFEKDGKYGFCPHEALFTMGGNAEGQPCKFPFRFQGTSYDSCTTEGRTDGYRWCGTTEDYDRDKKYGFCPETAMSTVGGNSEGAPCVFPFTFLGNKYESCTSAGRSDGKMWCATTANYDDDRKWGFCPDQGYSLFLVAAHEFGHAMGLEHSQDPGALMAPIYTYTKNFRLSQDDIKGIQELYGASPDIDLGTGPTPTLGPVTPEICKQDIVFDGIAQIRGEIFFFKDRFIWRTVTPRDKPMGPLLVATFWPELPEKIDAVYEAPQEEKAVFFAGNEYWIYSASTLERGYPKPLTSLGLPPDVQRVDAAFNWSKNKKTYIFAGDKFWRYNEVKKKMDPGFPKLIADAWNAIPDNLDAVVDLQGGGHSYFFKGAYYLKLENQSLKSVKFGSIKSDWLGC

[2] = biological target: T2, Human Recombinant Gelatinase B (MMP-9) (Homo sapiens, UniProt P14780); assay: P218 quenched fluorescence assay (Microfluorometric Profiling Assay), MMP-9; assay type: biochemical; conditions: 6 μM P218, pH 6.5, 25 min at 37° C.; read-out: MMP-9 Fluorogenic IC50
T2 construct: made in house
T2 sequence (P14780 107-707 limits assumed): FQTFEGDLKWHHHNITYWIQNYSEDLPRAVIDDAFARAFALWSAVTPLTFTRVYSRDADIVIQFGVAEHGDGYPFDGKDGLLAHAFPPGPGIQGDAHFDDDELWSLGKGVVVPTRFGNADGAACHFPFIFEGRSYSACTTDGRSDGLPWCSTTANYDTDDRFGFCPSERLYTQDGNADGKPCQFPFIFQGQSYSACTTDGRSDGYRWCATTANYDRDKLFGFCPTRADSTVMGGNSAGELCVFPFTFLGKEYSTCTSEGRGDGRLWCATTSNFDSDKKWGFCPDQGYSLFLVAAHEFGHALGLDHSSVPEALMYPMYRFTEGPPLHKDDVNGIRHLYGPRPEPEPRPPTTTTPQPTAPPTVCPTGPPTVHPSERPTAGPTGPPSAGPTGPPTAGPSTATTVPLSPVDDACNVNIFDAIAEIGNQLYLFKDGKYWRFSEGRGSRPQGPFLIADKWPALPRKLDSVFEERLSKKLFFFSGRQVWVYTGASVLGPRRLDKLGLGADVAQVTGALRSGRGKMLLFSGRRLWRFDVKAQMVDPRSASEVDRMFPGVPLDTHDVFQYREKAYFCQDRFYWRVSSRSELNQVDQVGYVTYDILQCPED
Description: (§1) P218 Quenched Fluorescence Assay for MMP Inhibition:
(§2) The P218 quenched fluorescence assay (Microfluorometric Profiling Assay) is a modification of that originally described by Knight, et al., FEBS Lett. 296 263, 1992 for a related substance and a variety of matrix metalloproteinases (MMPs) in cuvettes. The assay was run with each invention compound and the three MMPs, MMP-3, MMP-9 and MMP-2, analyzed in parallel, adapted as follows for a 96-well microtiter plate and a Hamilton AT® workstation.
(§3) P218 Fluorogenic Substrate:
(§4) P218 is a synthetic substrate containing a 4-acetyl-7-methoxycoumarin (MCA) group in the N-terminal position and a 3-[2,4-dinitrophenyl]-L-2,3-diaminopropionyl (DPA) group internally. This is a modification of a peptide reported by Knight (1992) that was used as a substrate for matrix metalloproteinases. Once the P218 peptide is cleaved (putative clip site at the Ala-Leu bond), the fluorescence of the MCA group can be detected on a fluorometer with excitation at 328 nm and emission at 393 nm. P218 is currently being produced BACHEM exclusively for Bayer. P218 has the structure:
(§5) H-MCA-Pro-Lys-Pro-Leu-Ala-Leu-DPA-Ala-Arg-NH2 (MW 1332.2)
Preparation of Human Recombinant Pro-Gelatinase B (MMP-9):
Recombinant Human Pro-MMP-9: Human pro-gelatinase B (pro-MMP-9) derived from U937 cDNA as described by Wilhelm, et al. J. Biol. Chem. 264, 17213 (1989) was expressed as the full-length form using a baculovirus protein expression system. The pro-enzyme was purified using methods previously described by Hibbs, et al. J. Biol. Chem. 260, 2493 (1984).
Activation of Pro-MMP-9: […] 20 μg/mL in 50 mM Tris at pH 7.4, 10 mM CaCl2, 150 mM NaCl, and 0.005% Brij-35 (MMP-9 activation buffer) was activated by incubation with 0.5 mM p-aminophenylmercuric acetate (APMA) for 3.5 h at 37° C. The enzyme was dialyzed against the same buffer to revmove the APMA.
(§6) Hamiltion Microlab AT Plus: The MMP-Profiling Assay is performed robotically on a Hamilton MicroLab AT Plus®. The Hamilton is programmed to: (1) serially dilute up to 11 potential inhibitors automatically from a 2.5 mM stock in 100% DMSO; (2) distribute substrate followed by inhibitor into a 96 well Cytofluor plate; and (3) add a single enzyme to the plate with mixing to start the reaction. Subsequent plates for each additional enzyme are prepared automatically by beginning the program at the substrate addition point, remixing the diluted inhibitors and beginning the reaction by addition of enzyme. In this way, all MMP assays were done using the same inhibitor dilutions.
(§7) Millipore Cytofluor II. Following incubation, the plate was read on a Cytofluor II fluorometric plate reader with excitation at 340 nm and emission at 395 nm with the gain set at 80.
(§8) Microfluorometric Reaction Buffer (MRB): Dilution of test compounds, enzymes, and P218 substrate for the microfluorometric assay were made in microfluorometric reaction buffer consisting of 50 mM 2-(N-morpholino)ethanesulfonic acid (MES) at pH 6.5 with 10 mM CaCl2, 150 mM NaCl, 0.005% Brij-35 and 1% DMSO.
(§9) MMP Microfluorometric Profiling Assay. The assay is done with a final substrate concentration of 6 μM P218 and approximately 0.5 to 0.8 nM MMP with variable drug concentrations. The Hamilton is programmed to serially dilute up to 11 compounds from a 2.5 mM stock (100% DMSO) to 10× the final compounds concentrations in the assay. Initially, the instrument delivers various amounts of microfluoromentric reaction buffer (MRB) to a 96 tube rack of 1 ml Marsh dilution tubes. The instrument then picks up 20 μl of inhibitor (2.5 mM) from the sample rack and mixes it with a buffer in row A of the Marsh rack, resulting in a 50 μM drug concentration. The inhibitors are then serially diluted to 10, 5, 1, 0.2, 0.05 and 0.01 μM. […]

[3] = biological target: T3, Recombinant Human CHO Stromelysin (MMP-3) (Homo sapiens, UniProt P08254); assay: P218 quenched fluorescence assay (Microfluorometric Profiling Assay), MMP-3; assay type: biochemical; conditions: for IC50: 6 μM P218, pH 6.5, 25 min at 37° C., read-out: MMP-3 Fluorogenic IC50; for inhibition at 5 µM: read-out: MMP-3 Fluorogenic, I = % inhibition
T3 construct: made in house; host or cells: CHO (Chinese hamster ovary) cells
T3 sequence (P08254 100-477): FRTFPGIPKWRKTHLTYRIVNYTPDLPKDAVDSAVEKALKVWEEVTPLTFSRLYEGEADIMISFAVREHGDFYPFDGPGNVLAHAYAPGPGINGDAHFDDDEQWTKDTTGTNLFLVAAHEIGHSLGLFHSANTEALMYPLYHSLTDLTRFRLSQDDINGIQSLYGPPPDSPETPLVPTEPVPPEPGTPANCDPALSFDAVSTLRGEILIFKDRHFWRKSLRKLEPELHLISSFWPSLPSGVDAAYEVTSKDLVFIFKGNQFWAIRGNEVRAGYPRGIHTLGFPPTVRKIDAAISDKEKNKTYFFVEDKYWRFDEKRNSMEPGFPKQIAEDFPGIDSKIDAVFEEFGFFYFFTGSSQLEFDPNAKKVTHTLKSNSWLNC
Description: as §1, §2, §3, §4, §5
Recombinant Human CHO Stromelysin (MMP-3)
Recombinant Human CHO Pro-MMP-3: Human CHO pro-stromelysin-257 (pro-MMP-3) was expressed and purified as described by Housley, et al., J. Biol. Chem. 268, 4481 (1993).
Activation of Pro-MMP-3: Pro-MMP-3 at 1.72 μM (100 μg/mL) in 5 mM Tris at pH 7.5, 5 mM CaCl2, 25 mM NaCl, and 0.005% Brij-35 MMP-3) activation buffer) was activated by incubation with TPCK (N-tosyl-(L)-phenylalanine chloromethyl ketone) trypsin (1: 100 w/w to pro-MMP-3) at 25° C. for 30 min. The reaction was stopped by addition of soybean trypsin inhibitor (SBTI; 5:1 w/w to trypsin concentration). This activation protocol results in the formation of 45 kDa active MMP-3, which still contains the C-terminal portion of the enzyme.
as §6, §7, §8, §9

[4] = system: human ovarian carcinoma xenografts; conditions: cited from earlier work
human colon tumor = conditions: given intraperitoneally, orthotopic model, nude mice; cited from earlier work

In the case of `CCCCCCCCCCC(=O)CC(CCN1C(=O)c2ccccc2C1=O)C(=O)O` (stereo not drawn) [I, 1,3-dihydro-1,3-dioxo-α-(2-oxododecyl)-2H-isoindole-2-butanoic acid], the IC50 [1] is reported as 1300 nM, the IC50 [2] is reported as 120 nM and the IC50 [3] is reported as 4800 nM.
With `CCCCCCCCCC(=O)CC(CCN1C(=O)c2ccccc2C1=O)C(=O)O` (stereo not drawn) [II, 1,3-dihydro-1,3-dioxo-α-(2-oxoundecyl)-2H-isoindole-2-butanoic acid] the IC50 [1] was 1850 nM, the IC50 [2] was 240 nM and the IC50 [3] was 5000 nM.
`CCCCCCCCCCCC(=O)CC(CCN1C(=O)c2ccccc2C1=O)C(=O)O` (stereo not drawn) [III, 1,3-dihydro-1,3-dioxo-α-(2-oxotidecyl)-2H-isoindole-2-butanoic acid] gave an IC50 [1] of 750 nM, an IC50 [2] of 91 nM and an IC50 [3] of 2950 nM.
Compound `CCCCCCCCCCCCC(=O)CC(CCN1C(=O)c2ccccc2C1=O)C(=O)O` (stereo not drawn) [IV, 1,3-dihydro-1,3-dioxo-α-(2-oxotetradecyl)-2H-isoindole-2-butanoicacid] has an IC50 [1] of 515 nM, an IC50 [2] of 155 nM and an IC50 [3] of 2380 nM.
Compound `COc1ccc(CC(=O)CC(CCc2ccccc2)C(=O)O)cc1` (stereo not drawn) [IX] has an inhibition at 5 µM [1] of 18% and an inhibition at 5 µM [3] of 9%.
Work on `CCCCCCCCCCCCCC(=O)CC(CCN1C(=O)c2ccccc2C1=O)C(=O)O` (stereo not drawn) [V, 1,3-dihydro-1,3-dioxo-α-(2-oxopentadecyl)-2H-isoindole-2-butanoic acid] yielded an IC50 [1] of 1100 nM, an IC50 [2] of 150 nM and an IC50 [3] of 3380 nM.
`CCCCCCCCCCCCCCC(=O)CC(CCN1C(=O)c2ccccc2C1=O)C(=O)O` (stereo not drawn) [VI, 1,3-dihydro-1,3-dioxo-α-(2-oxohexadecyl)-2H-isoindole-2-butanoic acid] gave an IC50 [1] of 1020 nM, an IC50 [2] of 235 nM and an inhibition at 5 µM [3] of 45%.
Work on `COc1ccc(CCCC(=O)CC(CCc2ccccc2)C(=O)O)cc1` (stereo not drawn) [VII] yielded an inhibition at 5 µM [1] of 18% and an inhibition at 5 µM [3] of 3%.
For `CNC(=O)[C@H](Cc1ccccc1)NC(=O)[C@H](CC(C)C)[C@H](CSc1cccs1)C(=O)NO` [batimastat], the “survival of mice bearing human ovarian carcinoma xenografts” value [4] is given as “prolongs the survival” and the “inhibition of human colon tumor growth and spread” value (human colon tumor) is given as “inhibits human colon tumor growth and spread”.
